Molecular target: T1, Recombinant BRD4(BD2) (Homo sapiens, UniProt O60885)
T1 construct: using the recombinant, individually purified bromodomains of BRD4 (GST-tagged BD1 and BD2); purchased Epicypher, Inc 15–0013
Assay: TR-FRET ligand displacement, recombinant GST-BRD4(BD2)
Format: binding
Conditions: GST-tagged, with 95% confidence interval
Experimental: Unless otherwise noted, experiments were performed in white, 384-well microtiter plates (Corning 3572 or PerkinElmer ProxiPlate-384 Plus) in 30 μL or 10 μL assay volume, respectively. TR-FRET measurements were acquired on a Tecan SPARK plate reader with SPARKCONTROL software version V2.1 (Tecan Group Ltd.), with the following settings: 340/50 nm excitation, 490/10 nm (Tb), 520/10 nm (FITC) emission, 100 μs delay, and 400 μs integration. The 490/10 and 520/10 nm emission channels were acquired with a 50% mirror and a dichroic 510 mirror, respectively, using independently optimized detector gain settings unless specified otherwise. The TR-FRET ratio was taken as the 520/490 nm intensity ratio on a per-well basis.
Assays were performed as described. Recombinant BRD4(BD1) and BRD4(BD2) were purchased from BPS Biosciences, Inc and Epicypher, Inc (GST-BRD4(BD1), 31,040; GST-BRD4(BD2), 15–0013, respectively). Recombinant bromodomains were diluted to 0.5 nM in assay buffer (25 mM HEPES, 150 mM NaCl, 0.5 mg/mL BSA, 0.005% TWEEN-20, pH 7.5) with 2 nM CoraFluor-1-labeled GST VHH (ChromoTek ST-250), then JQ1-FITC was added in serial dilution (cmax = 100 nM) using an HP D300 digital dispenser and allowed to equilibrate for 2 h at room temperature before TR-FRET measurements were taken. Nonspecific signal was determined with 50 μM JQ1-Acid, and data were fitted to a One Site–Specific Binding model in Prism 9. The KD determined from the one-site model was then used in Eq. 1 to adjust for a two-site model due to the dimeric GST protein:1 KD,2-site=KD,1-site×(1+2)
The following assay parameters have been used: (i) 4 nM GST-BRD4(BD1), 4 nM CoraFluor-labeled GST VHH, 20 nM JQ1-FITC in assay buffer, (ii) 4 nM GST-BRD4(BD2), 4 nM CoraFluor-labeled GST VHH, 20 nM JQ1-FITC in assay buffer, (iii) HEK293T or NPC cell lysate at 0.8 mg/mL total protein, 1 nM rabbit anti-BRD4 antibody, 2 nM CoraFluor-labeled anti-rabbit Nano-Secondary, 20 nM JQ1-FITC. For all experiments, test compounds were added in serial dilution (cmax = 10 μM) using an HP D300 digital dispenser and allowed to equilibrate for 2 h at room temperature before TR-FRET measurements were taken. The assay floor (background) was defined with the 10 μM mivebresib dose, and the assay ceiling (top) was defined via a no-inhibitor control. Data were fitted to a four-parameter dose–response model in Prism 9.
For TR-FRET ligand displacement assays with recombinant bromodomains, we have determined the KD of the respective fluorescent tracer (JQ1-FITC) under each assay condition. For endogenous BRD4 in whole cell extract, we have determined the KD,app of JQ1-FITC under each assay condition. Inhibitor KD and KD,app values have been calculated using Cheng-Prusoff principles, outlined in Eq. 2 below:2 KDorKD,app=IC50/1+[S]/KX where IC50 is the measured IC50 value, [S] is the concentration of fluorescent tracer, and KX is the KD or KD,app of the fluorescent tracer for a given condition.

Row | Structure (SMILES) | Kd
1 | Cn1cc(-c2cccnc2Oc2ccc(F)c(F)c2)c2cc[nH]c2c1=O [Compound 81A, 4-(2-(3,4-difluorophenoxy)pyridin-3-yl)-6-methyl-1,6-dihydro-7H-pyrrolo[2,3-c]pyridin-7-one] | 34 nM
2 | Cn1cc(-c2cccnc2Nc2ccc(F)cc2)c2cc[nH]c2c1=O [Compound 85A, 4-(2-((4-fluorophenyl)amino)pyridin-3-yl)-6-methyl-1,6-dihydro-7H-pyrrolo[2,3-c]pyridin-7-one] | 421 nM
3 | Cn1cc(-c2cccnc2Sc2ccc(F)cc2)c2cc[nH]c2c1=O [Compound 84A, 4-(2-((4-fluorophenyl)thio)pyridin-3-yl)-6-methyl-1,6-dihydro-7H-pyrrolo[2,3-c]pyridin-7-one] | 199 nM
4 | Cn1cc(-c2cccnc2Oc2cc(F)cc(F)c2)c2cc[nH]c2c1=O [Compound 82A, 4-(2-(3,5-difluorophenoxy)pyridin-3-yl)-6-methyl-1,6-dihydro-7H-pyrrolo[2,3-c]pyridin-7-one] | 30 nM
5 | Cn1ccc2c(-c3cc(F)cnc3Oc3ccc(F)cc3)c[nH]c2c1=O [Compound 86B, 3-(5-fluoro-2-(4-fluorophenoxy)pyridin-3-yl)-6-methyl-1,6-dihydro-7H-pyrrolo[2,3-c]pyridin-7-one] | 3710 nM
6 | Cn1ccc2c(-c3cccnc3Oc3ccc(F)cc3)c[nH]c2c1=O [Compound 18B, 3-[2-(4-fluorophenoxy)pyridin-3-yl]-6-methyl-1,6-dihydro-7H-pyrrolo[2,3-c]pyridin-7-one] | 158 nM
7 | Cn1ccc2c(-c3cccnc3Sc3ccc(F)cc3)c[nH]c2c1=O [Compound 84B, 3-(2-((4-fluorophenyl)thio)pyridin-3-yl)-6-methyl-1,6-dihydro-7H-pyrrolo[2,3-c]pyridin-7-one] | 133 nM
8 | Cn1ccc2c(-c3cccnc3Oc3ccc(F)c(F)c3)c[nH]c2c1=O [Compound 81B, 3-(2-(3,4-difluorophenoxy)pyridin-3-yl)-6-methyl-1,6-dihydro-7H-pyrrolo[2,3-c]pyridin-7-one] | 375 nM
9 | Cn1cc(-c2cc(F)cnc2Oc2ccc(F)cc2)c2cc[nH]c2c1=O [Compound 86A, 4-(5-fluoro-2-(4-fluorophenoxy)pyridin-3-yl)-6-methyl-1,6-dihydro-7H-pyrrolo[2,3-c]pyridin-7-one] | 324 nM
10 | Cn1cc(-c2cccnc2Oc2ccc(F)cc2)c2cc[nH]c2c1=O [Compound 18A, 4-(2-(4-fluorophenoxy)pyridin-3-yl)-6-methyl-1H-pyrrolo[2,3-c]pyridin-7(6H)-one] | 24 nM
11 | Cn1ccc2c(-c3cccnc3Nc3ccc(F)cc3)c[nH]c2c1=O [Compound 85B, 3-(2-((4-fluorophenyl)amino)pyridin-3-yl)-6-methyl-1,6-dihydro-7H-pyrrolo[2,3-c]pyridin-7-one] | 2740 nM
12 | Cn1ccc2c(-c3cccnc3Oc3cc(F)cc(F)c3)c[nH]c2c1=O [Compound 82B, 3-(2-(3,5-difluorophenoxy)pyridin-3-yl)-6-methyl-1,6-dihydro-7H-pyrrolo[2,3-c]pyridin-7-one] | 332 nM

Reference: article PMC11032351, “Epigenetic modulation through BET bromodomain inhibitors as a novel therapeutic strategy for progranulin-deficient frontotemporal dementia” (Scientific Reports, 2024)
